Measured values taken from patent US5223509A, “β-carbolines as cholecystokinin and gastrin antagonists” (priority 1992, dated 1993).
Non-standard residues stand in square brackets, D forms with d. Residues, ends and D or L forms follow the SMILES beside them. *: point of attachment. sY = N[C@@H](Cc1ccc(OS(=O)(=O)O)cc1)C(=O)O; Cbz = O=C(OCc1ccccc1)*

Experiments:
[1] = tested on: CCK; settings: recently reported, J. M. Howard et al.; cited from earlier work
[2] = tested on: proteases; settings: limits duration of activity; cited from earlier work
[3] = molecular target: T1, gastrin receptor (gastric glands) (Cavia porcellus, UniProt H0VZC5); assay: Gastrin Receptor Binding in Guinea Pig Gastric Glands, 125I-gastrin; parameters: species or system guinea pig (male Hartley); settings: 25° C., 30 minutes
T1 construct: from tissue; host or cells: guinea pig gastric mucosal glands (male Hartley)
T1 sequence (H0VZC5 1-426): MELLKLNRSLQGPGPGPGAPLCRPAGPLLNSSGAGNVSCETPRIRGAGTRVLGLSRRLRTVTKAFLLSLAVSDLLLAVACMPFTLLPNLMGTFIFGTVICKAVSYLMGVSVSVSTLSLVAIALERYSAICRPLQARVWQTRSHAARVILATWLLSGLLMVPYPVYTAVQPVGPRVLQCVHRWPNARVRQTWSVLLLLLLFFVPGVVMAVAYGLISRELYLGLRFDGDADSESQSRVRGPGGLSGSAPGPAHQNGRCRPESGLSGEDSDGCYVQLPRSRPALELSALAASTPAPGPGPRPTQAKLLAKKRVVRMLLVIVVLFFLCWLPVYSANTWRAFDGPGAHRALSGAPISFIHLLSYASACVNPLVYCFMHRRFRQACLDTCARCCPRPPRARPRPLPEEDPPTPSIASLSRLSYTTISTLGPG
Method: Gastrin antagonist activity of compounds of Formula I was determined using the following assay.
Gastrin Receptor Binding in Guinea Pig Gastric Glands Preparation of guinea pig gastric mucosal glands
Guinea pig gastric mucosal glands were prepared by the procedure of Berglingh and Obrink Acta Physiol. Scand. 96: 150 (1976) with a slight modification according to Praissman et al. C. J. Receptor Res. 3: (1983). Gastric mucosa from guinea pigs ( 300-500 g body weight, male Hartley) were washed thoroughly and minced with fine scissors in standard buffer consisting of the following: 130 mM NaCl, 12 mM NaHCo3, 3 mM NaH2 PO4, 3 mM Na2 HPO4, 3 mM K2 HPO4, 2 mM MgSO4, 1 mM CaCl2, 5 mM glucose and 4 mM L-glutamine, 25 mM HEPES at pH 7.4. The minced tissues were washed and then incubated in a 37° C. shaker bath for 40 minutes with the buffer containing 0.1% collagenase and 0.1% BSA and bubbled with 95% o2 and 5% CO2. The tissues were passed twice through a 5 ml glass syringe to liberate the gastric glands, and then filtered through 200 mesh nylon. The filtered glands were centrifuged at 270 g for 5 minutes and washed twice by resuspension and centrifugation.
The washed guinea pig gastric glands prepared as above were resuspended in 25 ml of standard buffer containing 0.25 mg/ml of bacitracin. For binding studies, to 220 μl of gastric glands in triplicate tubes, 10 μl of buffer (for total binding) or gastrin (1 μM final concentration, for nonspecific binding) or test compound and 10 μl of ^125 I-gastrin (NEN, 2200 Ci/mmole, 25 pM final) or ^3 H pentagastrin (NEN 22 Ci/mmole, 1 nM final) were added. The tubes were aerated with 95% O2 and 5% CO2 and capped. The reaction mixtures after incubation at 25° C. for 30 minutes were filtered under reduced pressure on glass G/F B filters (Whatman) and immediately washed further with 4×4 ml of standard buffer containing 0.1% BSA. The radioactivity on the filters was measured using a Beckman gamma 5500 for ^125 I-gastrin or liquid scintillation counting for ^3 H-pentagastrin.

[4] = molecular target: T2, CCK receptor (pancreas) (Rattus norvegicus, UniProt P30551); assay: CCK Receptor Binding (Pancreas), 125I-CCK-33; parameters: species or system rat (male Sprague-Dawley); settings: for IC50: rat pancreas membranes, 125I-CCK-33, 37° C., 30 minutes; for effect on the 125I-CCK receptor binding assay: added protease inhibitors
T2 construct: The whole pancreas was dissected free of fat tissue and was homogenized; from tissue; host or cells: rat pancreas membranes (male Sprague-Dawley)
T2 sequence (P30551 1-444): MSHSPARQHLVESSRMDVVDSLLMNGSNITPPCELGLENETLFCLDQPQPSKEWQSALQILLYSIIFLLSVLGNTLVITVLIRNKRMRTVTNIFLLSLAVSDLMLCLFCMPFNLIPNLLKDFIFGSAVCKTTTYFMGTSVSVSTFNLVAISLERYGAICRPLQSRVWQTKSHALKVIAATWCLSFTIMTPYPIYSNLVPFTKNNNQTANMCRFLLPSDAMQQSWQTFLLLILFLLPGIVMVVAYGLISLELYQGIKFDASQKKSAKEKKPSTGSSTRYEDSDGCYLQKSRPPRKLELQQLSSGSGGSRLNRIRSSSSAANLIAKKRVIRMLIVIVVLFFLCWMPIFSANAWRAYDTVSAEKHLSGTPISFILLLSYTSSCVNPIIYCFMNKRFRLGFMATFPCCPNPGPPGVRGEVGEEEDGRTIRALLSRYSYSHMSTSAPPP
Method: 1. CCK Receptor BindinG (Pancreas)
CCK-33 was radiolabeled with ^125 I-Bolton Hunter reagent (2000 Ci/mmole) as described by Sankara et al. (J. Biol. Chem. 254: 9349-9351, 1979). Receptor bindinG was performed according to Innis and Snyder (Proc. Natl. Acad. Sci. 77: 6917-6921, 1980) with the minor modification of adding the additional protease inhibitors, phenylmethane sulfonyl fluoride and o-phenanthroline. The latter two compounds have no effect on the ^125 I-CCK receptor bindinG assay.
Male Sprague-Dawley rats (200-350 g) were sacrificed by decapitation. The whole pancreas was dissected free of fat tissue and was homogenized in 20 volumes of ice-cold 50 mM, Tris HCl (pH 7.7 at 25° C.) with a Brinkmann Polytron PT 10. The homogenates were centrifuged at 48,000 g for 10 min. Pellets were resuspended in Tris Buffer, centrifuged as above and resuspended in 200 volumes of binding assay buffer (50 mM Tris HCl, pH 7.7 at 25° C., 5 mM dithiothrietol, 0.1 mM bacitracin, 1.2 mM phenylmethane sulfonyl fluoride and 0.5 mM o-phenanthroline). For the binding assay, 25 μl of buffer (for total binding) or unlabeled CCK-8 sulfate to give a final concentration of 1 μM (for nonspecific binding) or the compounds of Formula I (for determination of inhibition of ^125 I CCK binding) and 25 μl of ^125 I-CCK 33 (30,000-40,000 cpm) were added to 450 μl of the membrane suspensions in microfuge tubes. All assays were run in duplicate or triplicate. The reaction mixtures were incubated at 37° C. for 30 minutes and centrifuged in a Beckman Microfuge (4 minutes) immediately after adding 1 ml of ice-cold incubation buffer. The supernatant was aspirated and discarded, pellets were counted with a Beckman gamma 5000. For Scatchard analysis (Ann. N.Y. Acad. Sci. 51: 660, 1949), ^125 I CCK 33 was progressively diluted with increasing concentrations of CCK 33.
1. Effect of The Compounds of Formula I on ^125 I-CCK-33 receptor binding
The preferred compounds of Formula I are those which inhibited specific ^125 I-CCK-33 binding in a concentration dependent manner.
A Ki value (dissociation constant of inhibitor) of the compounds of Formula I was estimated.

[5] = molecular target: T3, CCK receptor (brain, cerebral cortex) (Cavia porcellus, UniProt H0VZC5); assay: CCK Receptor Binding (Brain), 125I-CCK-33; parameters: species or system guinea pig (male Hartley); settings: guinea pig cerebral cortex, 25° C., 2 hours
T3 construct: Cerebral cortex was dissected and used as a receptor source; from tissue; host or cells: guinea pig cerebral cortex membranes (male Hartley)
T3 sequence (H0VZC5 1-426): T1 sequence (H0VZC5 1-426)
Method: 2. CCK Receptor Binding (Brain)
CCK 33 was radiolabeled and the binding was performed according to the description for the pancreas method with modifications according to Saito et al., J. Neurochem. 37:483-490, 1981.
Male Hartley guinea pigs (300-500 g) were sacrificed by decapitation and the brains were removed and placed in ice-cold 50 mM, Tris HCl plus 7.58 g/1 Trizma-7.4 (pH 7.4 at 25° C.). Cerebral cortex was dissected and used as a receptor source. Each gram of fresh guinea pig brain tissue was homogenized in 10 ml of Tris/Trizma buffer with a Brinkman polytron PT-10. The homogenates were centrifuged at 42,000 g for 15 minutes. Pellets were resuspended in Tris Buffer, centrifuged as above and resuspended in 200 volumes of binding assay buffer (10 mM N-2 -hydroxyethyl-piperazine-N'-2-ethane sulfonic acid (HEPES), 5 mM MgCl2, 0.25 mg/ml bacitracin, 1 mM ethylene glycol-bis-(β-aminoethylether-N,N'-tetraacetic acid) (EGTA), and 0.4% bovine serum albumin (BSA)). For the binding assay, 25 μl of buffer (for total binding) or unlabeled CCK-8 sulfate to give a final concentration of 1 μm (for nonspecific binding) or the compounds of Formula I (for determination of inhibition of ^125 I CCK binding) and 25 μl of ^125 I-CCK-33 (30,000-40,000 cpm) were added to 450 μl of the membrane suspensions in microfuge tubes. All assays were run in duplicate or triplicate. The reaction mixtures were incubated at 25° C. for 2 hours and centrifuged in a Beckman Microfuge (4 minutes) immediately after adding 1 ml of ice cold incubation buffer. The supernatant was aspirated and discarded, pellets were counted with a Beckman gamma 5000.

| SMILES | IC50 [3] | IC50 [4] | IC50 [5] | also measured |
| --- | --- | --- | --- | --- |
| CSCC[C@H](NC(=O)[C@H](Cc1ccc(OS(=O)(=O)O)cc1)NC(=O)OCc1ccccc1)C(=O)NCC(=O)N[C@@H](Cc1c[nH]c2ccccc12)C(=O)N[C@@H](CCSC)C(=O)N[C@@H](CC(=O)O)C(N)=O [Cbz-Tyr(SO3 H)-Met-Gly-Trp-Met-Asp-NH2] (Cbz-[sY]MGWMD-NH2) |  |  |  | CCK agonist/antagonist character [1]: partial agonist; degradation by proteases [2]: liable to degradation by proteases |
| O=C(Nc1cc2c(cn1)[nH]c1ccccc12)c1cccs1 [Example 5, N-9H-Pyrido(3,4-b)indol-3-yl 2 thiophene Carboxamide] | > 100 µM | 9.8 µM | ~130 µM |  |
| c1cnc2c(c1)ccc1cccnc12 [o-phenanthroline, reference compound] |  |  |  | effect on the 125I-CCK receptor binding assay [4]: no effect |
| Nc1cc2c(cn1)[nH]c1ccccc12 [Example 2, 3-Amino-9H-pyrido(3,4-b)indole] | > 100 µM | > 100 µM | > 100 µM |  |
| O=C(Nc1ccc(Cl)cc1)Nc1cc2c(cn1)[nH]c1ccccc12 [Example 4, N-(4-Chlorophenyl)-N^1 9-H-pyrido(3,4-b)indol-3-yl-urea] |  | 0.085 µM |  |  |
| O=C(Nc1cc2c(cn1)[nH]c1ccccc12)c1ccc(Cl)cc1 [Example 3, 4-Chloro-N-9H-pyrido(3.4-b)indol-3-yl-benzamide] |  | 3.5 µM |  |  |
| O=S(=O)(F)Cc1ccccc1 [phenylmethane sulfonyl fluoride, reference compound] |  |  |  | effect on the 125I-CCK receptor binding assay [4]: no effect |
| Cn1c(C(=O)Nc2cc3c(cn2)[nH]c2ccccc23)cc2ccccc21 [Example 6, N-9H-Pyrido(3,4-b)indol-3-yl-1-methyl-1H-indole-2-carboxamide] | > 100 µM | 0.71 µM | > 100 µM |  |
| O=C(CCc1ccccc1)Nc1cc2c(cn1)[nH]c1ccccc12 [Example 10, N-9H-Pyrido(3,4-b)indol-3-yl benzene Propanamide] |  | 0.33 µM |  |  |
| O=C(Nc1cc2c(cn1)[nH]c1ccccc12)c1ccccc1 [Example 8, N-9H-Pyrido(3,4-b)indol-3-yl benzamide] | > 100 µM | 7.1 µM | 223 µM |  |
| O=C(Cc1ccccc1)Nc1cc2c(cn1)[nH]c1ccccc12 [Example 9, N-9H-Pyrido(3,4-b)indol-3-yl benzene Acetamide] | 14 µM | 0.04 µM | 34 µM |  |
| O=C(Cc1c[nH]c2ccccc12)Nc1cc2c(cn1)[nH]c1ccccc12 [Example 7, N-9H-Pyrido(3,4-b)indol-3-yl-1H-indole 3-acetamide] |  | 0.024 µM |  |  |
